Data published in patent US11446353B2, “Compositions and methods for the treatment of fungal infections” (priority 2014, dated 2022).

Tests used:
[1] = tested on: Coccidioides posadasii Δcts2/Δard1/Δcts3; format: cell-based
[2] = tested on: Coccidioides posadasii Δcts2/Δard1/Δcts3

For `CC/C(=C(\c1ccccc1)c1ccc(OCCN(C)C)cc1)c1ccccc1` [Tamoxifen], the “hit strength in screen” value [1] was “strong positive hit” and the “fungal growth inhibitory properties” value [2] was “strong fungal growth inhibitory properties”.
